Experimental findings from ChEMBL document CHEMBL1137099, “Synthesis of novel rhinacanthins and related anticancer naphthoquinone esters” (J Med Chem, 2004) are described below.

The assay has as its system KB. Put plainly: Concentration required to inhibit growth of human epidermoid carcinoma (KB) cell line; IA= Inactive. Type of assay: functional, cell-based.
In the case of `O=C1C(O)=C(CCCO)C(=O)c2ccccc21`, the IC50 result was “Not Active”. Regarding `COC1C(C(=O)O)=CCc2ccccc21` (stereo not given), the IC50 result is given as “Not Active”. In the case of `O=C(O)C1=CCc2ccccc2C1`, the IC50 entry was “Not Active”.

On to `COC1C=C(C(=O)O)C(OC)c2ccccc21` (stereo not given), for which the IC50 result was “Not Active”. In the case of `O=C(O)C1=CCc2ccccc2C1O` (stereo not given), the IC50 entry was “Not Active”.
